Assay [1] deals with T1, AR (Homo sapiens, UniProt P10275, T878A).
T1 construct: endogenous in cells; host or cells: LNCaP cells
T1 sequence (P10275 1-920 T878A): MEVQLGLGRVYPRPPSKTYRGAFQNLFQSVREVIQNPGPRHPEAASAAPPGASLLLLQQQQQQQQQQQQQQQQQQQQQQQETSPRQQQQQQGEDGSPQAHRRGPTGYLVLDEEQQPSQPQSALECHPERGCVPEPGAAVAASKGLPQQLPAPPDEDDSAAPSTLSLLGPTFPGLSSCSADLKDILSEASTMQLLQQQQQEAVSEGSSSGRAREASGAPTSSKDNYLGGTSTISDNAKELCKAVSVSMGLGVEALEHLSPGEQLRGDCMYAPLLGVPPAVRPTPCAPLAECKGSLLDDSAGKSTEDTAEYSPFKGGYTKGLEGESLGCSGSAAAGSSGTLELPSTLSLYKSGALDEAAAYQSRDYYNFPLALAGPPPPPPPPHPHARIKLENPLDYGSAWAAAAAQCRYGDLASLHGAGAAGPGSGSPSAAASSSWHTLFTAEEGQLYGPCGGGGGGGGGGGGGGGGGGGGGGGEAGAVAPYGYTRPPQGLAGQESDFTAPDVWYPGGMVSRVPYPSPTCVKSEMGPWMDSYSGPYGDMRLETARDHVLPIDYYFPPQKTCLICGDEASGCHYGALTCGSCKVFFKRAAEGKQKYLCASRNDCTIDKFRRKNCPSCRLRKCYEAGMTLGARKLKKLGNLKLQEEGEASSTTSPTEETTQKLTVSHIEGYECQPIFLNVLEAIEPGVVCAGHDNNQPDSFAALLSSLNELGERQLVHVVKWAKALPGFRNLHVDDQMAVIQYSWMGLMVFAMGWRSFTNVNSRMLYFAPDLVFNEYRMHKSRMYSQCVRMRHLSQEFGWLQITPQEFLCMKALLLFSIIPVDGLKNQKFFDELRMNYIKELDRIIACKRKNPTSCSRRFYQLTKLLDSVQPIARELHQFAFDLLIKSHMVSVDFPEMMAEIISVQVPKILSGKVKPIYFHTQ
In words: In Cell Western AR degradation assay in LNCaP cells. The assay is classed as cell-based. The note with it: 18 hrs, greater than 50% degradation at 10 μM (method says 20 μM). How it is done:
In Cell Western (AR degradation Assay, Table 2, B10). LNCaP cells were plated in 96-well clear bottom black plates (20K cells/well) in RPMI supplemented with 8% CFS. Following 48 hr incubation, cells were treated with hormone (20 μM test compound) for 18 hrs. Cells were fixed with formaldehyde (3.7%) and permeabilized using PBS (0.1% TRITON X-100). Cells were incubated with anti-AR antibody (N20, 1:2000), washed with PBS (0.1% Tween), and stained with 2nd antibody (Biotium CF770 goat anti-rabbit, 1:2000). AR protein expression was assessed using the LI-COR Odyssey imaging system. DRAQ5 (DNA stain, 1:10,000, Thermo Scientific) was used to normalize AR protein expression.
For B4-B7, scoring system is based on the relative AR target gene agonist/antagonist activity of test compounds when compared to benchmark compounds enzalutamide or bicalutamide. […] The lack of agonist activity is desirable for therapies intended to treat CRPC. For B4 and B6, a score of 1 indicates less agonism (highly desired activity) than benchmark compound enzalutamide, a score of 2 indicates equal agonism to enzalutamide (desirable), a score of 3 indicates agonism between enzalutamide and bicalutamide (less desirable activity), a score of 4 indicates equal agonism to bicalutamide (liability), and a score of 5 indicates higher agonism than bicalutamide (liability). For B5 and B7 a score of 1 indicates higher antagonist efficacy (highly desired activity) than benchmark compound enzalutamide, a score of 2 indicates equal antagonist efficacy to enzalutamide (desirable), a score of 3 indicates antagonist efficacy between enzalutamide and bicalutamide (less desirable activity), a score of 4 indicates antagonist efficacy equal to bicalutamide (liability), and a score of 5 indicates antagonist efficacy worse than bicalutamide (liability) For B9, Compounds that degrade AR (greater than 50% degradation at 10 μM) are indicated.

Assay [2] deals with T2, AR (Homo sapiens, UniProt P10275).
T2 construct: expressed in transfected cells; host or cells: CV1 cells
T2 sequence (P10275 1-920): T1 sequence (P10275 1-920 T878A) with A878T
In words: Reporter gene assay, AR transcriptional (MMTV-Luc) in CV1 cells. The assay is classed as cell-based. The note with it: pcDNA-AR + MMTV-Luc, 0.1 nM R1881 plus test compound, 24 hrs, read-out: B1 = AR transcriptional IC50 (μM) in CV1 cells. How it is done:
Reporter Gene Assay (IC50 determination, Table 2, B1-B3). CV1 cells were seeded into 96-well cell culture plates and transfected with Lipofectin. For AR transcriptional assays, the DNA mixture consisted of pcDNA-AR, MMTV-Luc (androgen responsive reporter gene), and Renilla-Luc (for assessing transfection efficiency and toxicity). Following overnight incubation, cells were induced with hormone (0.1 nM R1881 (synthetic AR agonist) plus increasing concentrations of test compound) for 24 hrs. Cells were lysed and luciferase activity was quantified using Dual Luciferase Reagent (DLR). IC50 determination was assessed using GraphPad Prism software.

Positions count from the first letter of the chain named.

With `Cc1ccc(C2C3=C(CC(C)(C)CC3=O)Nc3ccc4ncccc4c32)s1` (racemic) [Compound A103, (±)-9,9-dimethyl-12-(5-methylthiophen-2-yl)-8,9,10,12-tetrahydrobenzo[b][4,7]phenanthrolin-11(7H)-one], the “B9 = AR degradation in LNCaP cells (In-Cell Western)” value (“B9 = AR degradation in LNCaP cells” for short) in assay [1] is “Degrader (Compounds that degrade AR (greater than 50% degradation at 10 μM) are indicated)”. Also, the IC50 in assay [2] was 0.3 µM.

With `CC1(C)CC(=O)C2=C(C1)Nc1ccc3ncccc3c1C2c1ccc(C#N)cc1` (centres unmarked) [Compound A55], the “B9 = AR degradation in LNCaP cells” value in assay [1] is “Degrader (Compounds that degrade AR (greater than 50% degradation at 10 μM) are indicated)”. Moreover, in assay [2], the IC50 was > 10 µM.

Consider `CC1(C)CC(=O)C2=C(C1)Nc1ccc3nccnc3c1C2c1ccc(Br)s1` (racemic) [Compound A100, (±)-12-(5-bromothiophen-2-yl)-9,9-dimethyl-8,9,10,12-tetrahydropyrazino[2,3-a]acridin-11(7H)-one], for which the “B9 = AR degradation in LNCaP cells” value in assay [1] was “Degrader (Compounds that degrade AR (greater than 50% degradation at 10 μM) are indicated)”. Moreover, the IC50 in assay [2] is 0.5 µM.

In the case of `Cc1ccsc1C1C2=C(CC(C)(C)CC2=O)Nc2ccc3ncccc3c21` (centres unmarked) [Compound A114], in assay [1], the “B9 = AR degradation in LNCaP cells” value is recorded as “Degrader (Compounds that degrade AR (greater than 50% degradation at 10 μM) are indicated)”. Further, in assay [2], the concentration for half-maximal inhibition (IC50) came to 1.1 µM.

On to `CC1(C)CC(=O)C2=C(C1)Nc1ccc3ncncc3c1C2c1ccc(Cl)s1` (racemic) [Compound A101, (±)-12-(5-chlorothiophen-2-yl)-9,9-dimethyl-8,9,10,12-tetrahydropyrimido[5,4-a]acridin-11(7H)-one], for which the “B9 = AR degradation in LNCaP cells” value in assay [1] is listed as “Degrader (Compounds that degrade AR (greater than 50% degradation at 10 μM) are indicated)”. Also, the IC50 in assay [2] amounted to 0.8 µM.

On to `CC1(C)CC(=O)C2=C(C1)Nc1cc(N3CCCC3)ccc1C2c1ccc(Cl)s1` (racemic) [Compound A97, (±)-9-(5-chlorothiophen-2-yl)-3,3-dimethyl-6-(pyrrolidin-1-yl)-3,4,9,10-tetrahydroacridin-1(2H)-one], for which the “B9 = AR degradation in LNCaP cells” value in assay [1] is on record as “Degrader (Compounds that degrade AR (greater than 50% degradation at 10 μM) are indicated)”. In addition, the concentration for half-maximal inhibition (IC50) in assay [2] was > 10 µM.

Consider `CC1(C)CC(=O)C2=C(C1)Nc1cc(N3CCCC3)ccc1C2c1ccc(F)c(F)c1` (racemic) [Compound A90, (±)-9-(3,4-difluorophenyl)-3,3-dimethyl-6-(pyrrolidin-1-yl)-3,4,9,10-tetrahydroacridin-1(2H)-one], for which the “B9 = AR degradation in LNCaP cells” value in assay [1] is given as “Degrader (Compounds that degrade AR (greater than 50% degradation at 10 μM) are indicated)”. Further, the IC50 in assay [2] was > 10 µM.

In the case of `CC1(C)CC(=O)C2=C(C1)Nc1ccc3ncccc3c1C2c1ccc(Br)s1` (centres unmarked) [Compound A63], the “B9 = AR degradation in LNCaP cells” value in assay [1] is “Degrader (Compounds that degrade AR (greater than 50% degradation at 10 μM) are indicated)”. In addition, the IC50 in assay [2] worked out at 1.9 µM.

For the compound `CC1(C)CC(=O)C2=C(C1)Nc1ccc3c(c1C2c1ccc(Br)s1)OCO3` (centres unmarked) [Compound A111], the “B9 = AR degradation in LNCaP cells” value in assay [1] is reported as “Degrader (Compounds that degrade AR (greater than 50% degradation at 10 μM) are indicated)”. Besides, the IC50 in assay [2] is 1.4 µM.

Regarding `CC1(C)CC(=O)C2=C(C1)Nc1ccc3ncccc3c1C2c1ccccn1` (centres unmarked) [Compound A57, 9,9-dimethyl-12-(pyridin-2-yl)-8,9,10,12-tetrahydrobenzo[b][4,7]phenanthrolin-11(7H)-one], the “B9 = AR degradation in LNCaP cells” value in assay [1] is “Degrader (Compounds that degrade AR (greater than 50% degradation at 10 μM) are indicated)”. In addition, the IC50 in assay [2] is > 10 µM.

`Cn1ncc2ccc3c(c21)C(c1ccc(Br)s1)C1=C(CC(C)(C)CC1=O)N3` (centres unmarked) [Compound A113]: the “B9 = AR degradation in LNCaP cells” value in assay [1] is “Degrader (Compounds that degrade AR (greater than 50% degradation at 10 μM) are indicated)”. Besides, the IC50 in assay [2] was 5.1 µM.

As to `Cc1ccsc1C1C2=C(CC(C)(C)CC2=O)Nc2cc(N3CCCC3)ccc21` (centres unmarked) [Compound A116], the “B9 = AR degradation in LNCaP cells” value in assay [1] is reported as “Degrader (Compounds that degrade AR (greater than 50% degradation at 10 μM) are indicated)”. For the same compound, the IC50 in assay [2] is > 10 µM.

For the compound `CC1(C)CC(=O)C2=C(C1)Nc1ccc3ncccc3c1C2c1cc(C(F)(F)F)cc(C(F)(F)F)c1` (centres unmarked) [Compound A50], the “B9 = AR degradation in LNCaP cells” value in assay [1] is reported as “Degrader (Compounds that degrade AR (greater than 50% degradation at 10 μM) are indicated)”. Moreover, the IC50 in assay [2] was 6 µM.

As for `CC1(C)CC(=O)C2=C(C1)Nc1ccc3ccccc3c1C2c1ccc([N+](=O)[O-])cc1` (centres unmarked) [Compound A51, 9,9-dimethyl-12-(4-nitrophenyl)-8,9,10,12-tetrahydrobenzo[a]acridin-11(7H)-one], the “B9 = AR degradation in LNCaP cells” value in assay [1] is reported as “Degrader (Compounds that degrade AR (greater than 50% degradation at 10 μM) are indicated)”. Also, the IC50 in assay [2] was 1.2 µM.

Turning to `CC1(C)CC(=O)C2=C(C1)Nc1ccc3ncccc3c1C2c1csc([N+](=O)[O-])c1` (centres unmarked) [Compound A60], in assay [1], the “B9 = AR degradation in LNCaP cells” value is on record as “Degrader (Compounds that degrade AR (greater than 50% degradation at 10 μM) are indicated)”. In addition, in assay [2], the IC50 amounted to 1.7 µM.

Regarding `Cc1nc2ccc3c(c2nc1C)C(c1ccc(F)c(F)c1)C1=C(CC(C)(C)CC1=O)N3` (racemic) [Compound A84, (±)-12-(3,4-difluorophenyl)-2,3,9,9-tetramethyl-8,9,10,12-tetrahydropyrazino[2,3-a]acridin-11(7H)-one], the “B9 = AR degradation in LNCaP cells” value in assay [1] was “Degrader (Compounds that degrade AR (greater than 50% degradation at 10 μM) are indicated)”. For the same compound, the IC50 in assay [2] stood at 55 µM.
